Read-outs that look alike come from different tables or passages of the source.
What was measured:
Format in all cases: in vivo
[1] = system: Phytophthora infestans (the causal agent of tomato late blight); experiment: whole plant or invertebrate
[2] = system: Plasmopara vilicola (the causal agent of grape downy mildew); experiment: Test A: grape downy mildew, test suspension sprayed on grape seedlings after inoculation, visual disease rating
Text: General protocol for preparing test suspensions for Test A-C: The test compounds were first dissolved in acetone in an amount equal to 3% of the final volume and then suspended at the desired concentration (in ppm) in acetone and purified water (50/50 mix by volume) containing 250 ppm of the surfactant Trem® 014 (polyhydric alcohol esters). The resulting test suspensions were then used in Tests A-C. Spraying a 200 ppm test suspension to the point of run-off on the test plants was equivalent to a rate of 500 g/ha.
Grape seedlings were inoculated with a spore suspension of Plasmopara vilicola (the causal agent of grape downy mildew) and incubated in a saturated atmosphere at 20° C. for 24 h. After a short drying period, the test suspension was sprayed to the point of run-off on the grape seedlings, which were then moved to a growth chamber at 20° C. for 5 days, after which time the grape seedling were placed back into a saturated atmosphere at 20° C. for 24 h. Upon removal, visual disease ratings were made.
Results for Tests A-C are given in Table A. In the table, a rating of 100 indicates 100% disease control and a rating of 0 indicates no disease control (relative to the controls). A dash (-) indicates no test results.

[3] = system: Phytophthora infestans (the causal agent of tomato late blight); experiment: whole plant or invertebrate; remark: listed apart in the source
[4] = Phytophthora infestans, 144 h, read-out: Percent Disease Control, Test B
[5] = Plasmopara, 144 h, ** tested at l0 ppm, read-out: Percent Disease Control, Test A
[6] = Phytophthora infestans, 96 h, read-out: Percent Disease Control, Test C
[7] = compounds without asterisk (application rate not given), 100 = 100% disease control, 0 = no control relative to the controls

Q: C[C@]1(c2ccccc2)CC(c2csc(C3CCN(C(=O)Cn4nc(C(F)(F)F)cc4Cl)CC3)n2)=NO1 (racemic) [Compound 261, 2-[5-chloro-3-(trifluoromethyl)-1H-pyrazol-1-yl]-1-[4-[4-[(5R)-4,5-dihydro-5-methyl-5-phenyl-3-isoxazolyl]-2-thiazolyl]-1-piperidinyl]ethanone] was tested. Which pest or weed control at 10 µg/mL [1, 4] did it give?
A: 100%

Q: And the pest or weed control at 10 µg/mL [2, 5]?
A: 100%

Q: What about the pest or weed control at 10 µg/mL [3, 6] of the same compound?
A: 93%

Q: For Cc1cc(C(F)(F)F)nn1CC(=O)N1CCC(c2nc(C3=NO[C@@](C#N)(c4ccccc4)C3)cs2)CC1 (racemic) [Compound 265, (5R)-4,5-dihydro-3-[2-[1-[2-[5-methyl-3-(trifluoromethyl)-1H-pyrazol-1-yl]acetyl]-4-piperidinyl]-4-thiazolyl]-5-phenyl-5-isoxazolecarbonitrile], which pest or weed control at 10 µg/mL [1, 4] is on record?
A: 100%

Q: What about the pest or weed control at 10 µg/mL [2, 5] of the same compound?
A: 100%

Q: And the pest or weed control at 10 µg/mL [3, 6]?
A: 98%

Q: Which “Percent Disease Control, Test B” value ([1]; ** tested at l0 ppm) does the source give for Cc1cc(C(F)(F)F)nn1CC(=O)N1CCC(c2nc(C3=NOC(c4ccccc4)C3)cs2)CC1 (single isomer, unassigned) [Compound 4] here?
A: 100%

Q: What about the “Percent Disease Control, Test A” value ([2]; ** tested at l0 ppm) of the same compound?
A: 100%

Q: And the “Percent Disease Control, Test C” value ([3]; ** tested at l0 ppm)?
A: 99%

Q: What does the source list for Cc1cc(C(F)(F)F)nn1CC(=O)N1CCC(c2nc(C3=NOC4(CCC(c5ccccc5)C4)C3)cs2)CC1 (single isomer, unassigned) [Compound 157]?
A: Percent Disease Control, Test B ([1]; * tested at 40 ppm): 100%; Percent Disease Control, Test A ([2]; * tested at 40 ppm): 100%; Percent Disease Control, Test C ([3]; * tested at 40 ppm): 94%

Q: Which “Percent Disease Control, Test B” value [1, 7] does the source give for Cc1cc(C(F)(F)F)nn1CC(=O)N1CCC(c2nc(C3=NOC4(CCC(c5ccccc5)C4)C3)cs2)CC1 (single isomer, unassigned) [Compound 158] here?
A: 100%

Q: What about the “Percent Disease Control, Test A” value [2, 7] of the same compound?
A: 96%

Q: What about the “Percent Disease Control, Test C” value [3, 7] of the same compound?
A: 99%

Q: Which results are given for Cc1cc(C(F)(F)F)nn1CC(=O)N1CCC(c2nc(C3=NOC4(COC(c5ccccc5)OC4)C3)cs2)CC1 (single isomer, unassigned) [Compound 175]?
A: Percent Disease Control, Test B [1, 7]: 100%; Percent Disease Control, Test A [2, 7]: 68%; Percent Disease Control, Test C [3, 7]: 33%

Q: How did the “Percent Disease Control, Test B” value [1, 7] turn out when Cc1cc(C(F)(F)F)nn1CC(=O)N1CCC(c2nc(C3=NOC4(COC(c5ccccc5)OC4)C3)cs2)CC1 (single isomer, unassigned) [Compound 176] was run?
A: 100%

Q: And the “Percent Disease Control, Test A” value [2, 7]?
A: 68%

Q: And the “Percent Disease Control, Test C” value [3, 7]?
A: 63%

Q: What does the source list for Cc1cc(C(F)(F)F)nn1CC(=O)N1CCC(c2nc(C3=NOC4(CCC(C)(c5ccccc5)CC4)C3)cs2)CC1 (single isomer, unassigned) [Compound 186]?
A: Percent Disease Control, Test B ([1]; * tested at 40 ppm): 100%; Percent Disease Control, Test A ([2]; * tested at 40 ppm): 95%; Percent Disease Control, Test C ([3]; * tested at 40 ppm): 86%

Q: Cc1cc(C(F)(F)F)nn1CC(=O)N1CCC(c2nc(C3=NOC4(CCC(C)(c5ccccc5)CC4)C3)cs2)CC1 (single isomer, unassigned) [Compound 187] was tested. Which “Percent Disease Control, Test B” value ([1]; * tested at 40 ppm) did it give?
A: 100%

Q: What about the “Percent Disease Control, Test A” value ([2]; * tested at 40 ppm) of the same compound?
A: 99%

Q: What about the “Percent Disease Control, Test C” value ([3]; * tested at 40 ppm) of the same compound?
A: 93%

Q: What does the source list for Cc1cc(C(F)(F)F)nn1CC(=O)N1CCC(c2nc(C3=NOC4(CCCC(C#N)C4)C3)cs2)CC1 (single isomer, unassigned) [Compound 253]?
A: Percent Disease Control, Test B ([1]; * tested at 40 ppm): 100%; Percent Disease Control, Test A ([2]; * tested at 40 ppm): 100%; Percent Disease Control, Test C ([3]; * tested at 40 ppm): 95%

Q: With Cc1cc(C(F)(F)F)nn1CC(=O)N1CCC(c2nc(C3=NOC4(CCCC(C#N)C4)C3)cs2)CC1 (single isomer, unassigned) [Compound 254] as the compound, how does the “Percent Disease Control, Test B” value ([1]; * tested at 40 ppm) read?
A: 100%

Q: And the “Percent Disease Control, Test A” value ([2]; * tested at 40 ppm)?
A: 100%

Q: What about the “Percent Disease Control, Test C” value ([3]; * tested at 40 ppm) of the same compound?
A: 93%

Q: With Cc1cc(C(F)(F)F)nn1CC(=O)N1CCC(c2nc(C3=NOC4(CCC(C#N)CC4)C3)cs2)CC1 (single isomer, unassigned) [Compound 255] as the compound, how does the “Percent Disease Control, Test B” value ([1]; * tested at 40 ppm) read?
A: 100%

Q: What about the “Percent Disease Control, Test A” value ([2]; * tested at 40 ppm) of the same compound?
A: 95%

Q: And the “Percent Disease Control, Test C” value ([3]; * tested at 40 ppm)?
A: 93%

Q: Cc1cc(C(F)(F)F)nn1CC(=O)N1CCC(c2nc(C3=NOC4(CCC(C#N)CC4)C3)cs2)CC1 (single isomer, unassigned) [Compound 256] was tested. Which “Percent Disease Control, Test B” value ([1]; * tested at 40 ppm) did it give?
A: 100%

Q: What about the “Percent Disease Control, Test A” value ([2]; * tested at 40 ppm) of the same compound?
A: 100%

Q: What about the “Percent Disease Control, Test C” value ([3]; * tested at 40 ppm) of the same compound?
A: 99%

Q: Which pest or weed control at 10 µg/mL [1, 4] does the source give for Cc1cc(C(F)(F)F)nn1CC(=O)N1CCC(c2nc(C3=NO[C@@H](c4ccccc4)C3)cs2)CC1 [Compound 3, 1-[4-[4-[(5R)-4,5-dihydro-5-phenyl-3-isoxazolyl]-2-thiazolyl]-1-piperidinyl]-2-[5-methyl-3-(trifluoromethyl)-1H-pyrazol-1-yl]ethanone] here?
A: 100%

Q: What about the pest or weed control at 10 µg/mL [2, 5] of the same compound?
A: 100%

Q: What about the pest or weed control at 10 µg/mL [3, 6] of the same compound?
A: 99%

Q: How did the pest or weed control at 40 ppm [1, 4] turn out when Cc1cc(C(F)(F)F)nn1CC(=O)N1CCC(c2nc(C3CC(c4ccccc4)=NO3)cs2)CC1 (stereo not drawn) [Compound 6, 4-[4-(4,5-dihydro-3-phenyl-5-isoxazolyl)-2-thiazolyl]-1-[(5-methyl-3-(trifluoromethyl)-1H-pyrazol-1-yl)acetyl]piperidine] was run?
A: 100%

Q: And the pest or weed control at 40 ppm ([2]; Plasmopara, 144 h, * tested at 40 ppm, read-out: Percent Disease Control, Test A)?
A: 95%

Q: What about the pest or weed control at 40 ppm [3, 6] of the same compound?
A: 99%

Reference: patent publication US9920030B2 (priority 2006, dated 2018)
